The record followed here is patent publication US5340829A, “Immunoregulatory agents” (priority 1992, dated 1994).

“Also recorded” adds a separate entry of the source. Like-named read-outs stand apart in the source and are kept apart here.

The subject of series [1] is spleen cells stimulated with Concanavalin A (Con A). Put plainly: Spleen cell proliferative response to Con A after oral sorbinil (Experiment 8). As to conditions: for activation at 11 mg/kg/day: Mus musculus, read-out: Enhancement of proliferative response. The series is classed as in vivo, mice. The method, then: The proliferative response of T lymphocytes to the Con A mitogen requires the obligatory participation of adherent accessory cells, which are presumed to be macrophages.
Mice received sorbinil orally for one, two, or three days prior to sacrifice. The dosage was 11 mg/kg per day. Control mice received the buffer vehicle alone. Mice from these four groups were sacrificed and their spleens harvested. The spleens were teased into single-cell suspensions that were cultured with different concentrations of Con A for three or four days. One microcurie of tritiated thymidine was added to each culture 18 hours before the cultures were terminated. Incorporation of the tritiated thymidine into cellular DNA was measured by using a liquid scintillation counter. The results of this experiment are presented in FIGS. 20 and 21 and are summarized as follows: […]

Series [2] concerns Human polymorphonuclear leukocytes (PMNs). As to the kind of experiment: LTB4 release by polymorphonuclear leukocytes (Experiment 10). Particulars: normal human PMNs. The series is classed as cell-based. From the text: Human polymorphonuclear leukocytes (PMNs) were used to study LTB4 release, which is known to be involved in inflammation.
A further series has as its system Normal mouse thymocytes. Put plainly: 3H-thymidine incorporation, PHA plus IL-1 stimulated thymocytes (Experiment 12). It counts as cell-based. As to conditions: concentrations as high as 10^-6 M/L; PHA in the presence of preformed IL-1. Background: Uptake of a labelled nucleoside into DNA is a usual measure of proliferation.
The test system of another series is white cells. As to conditions: in vivo.
For series [3], the system named is spleen cells from irradiated C57B6 mice with thymocytes from Balb C mice. Put plainly: Mixed lymphocyte response (Experiment 19). The series is classed as cell-based. As to conditions: concentrations as high as 10^-5 M/L.
The test system of series [4] is swelling of popliteal lymph nodes. As to the kind of experiment: Popliteal lymph node assay (Experiment 20). It counts as in vivo. Particulars: Balb C mice injected in the foot pad with cells from C57BL6 mice. The method, then:
In vivo, popliteal lymph node assays were conducted on normal Balb C mice.

Series [5] relates to ear swelling produced by topical application of arachidonic acid. As to the kind of experiment: Ear swelling produced by topical arachidonic acid (Experiment 22). It counts as in vivo, mice.

As for `O=C1NC(=O)[C@@]2(CCOc3ccc(F)cc32)N1` [Sorbinil, 4(S)-2,3-dihydro-6-fluorospiro-(4H-1-benzopyran-4,4'-imidazolidine)-2',5'-dione], the activation at 11 mg/kg/day in series [1] (72 h) was 9%; in series [1] (96 h) it was 3 to 30%. In addition, the “Reduction of proliferative response” value is on record as 25-58% in series [1] (cultures harvested day four, sorbinil three days prior to harvest); 5 to 18% in series [1] (cultures harvested day four, sorbinil two days prior to sacrifice); 25% in series [1] (cultures harvested day three, sorbinil one day prior to sacrifice, 1 μmg of Con A/ml); 18% in series [1] (cultures harvested day three, sorbinil one day prior to sacrifice, Con A 2 μmg/ml); 30% in series [1] (cultures harvested day three, sorbinil three days prior to sacrifice, Con A 2 μmg/ml); 27% in series [1] (cultures harvested day three, sorbinil three days prior to sacrifice, Con A 5 μmg/ml). The “Reduction of proliferative response” value in series [1] (cultures harvested day three, sorbinil two days prior to sacrifice, 1 μmg of Con A/ml) is recorded as 22%; in series [1] (cultures harvested day three, sorbinil two days prior to sacrifice, Con A 2 μmg/ml), 11%. For the same compound, the “Proliferative response to the mitogen Con A (in words)” value in series [1] (sorbinil 11 mg/kg per day orally prior to sacrifice) is “reduced proliferative response; also recorded: inhibits the proliferative response of T-cells”. The “Kinetics of the proliferative response of spleen cells to Con A” value in series [1] (sorbinil one, two, or three days prior to spleen cell harvesting) is reported as “not affected”. Also, the “Dose response pattern to Con A” value in series [1] (sorbinil-treated vs buffer-treated mice) is reported as “similar”. Besides, the “Production of LTB4” value in series [2] is “no effect”. Besides, the “Incorporation of 3H-thymidine” value with Normal mouse thymocytes is on record as “no effect”. Moreover, in the series with white cells, the “White cell population (differential blood count)” value was “did not affect the population of white cells”. Besides, the Mixed lymphocyte response entry in series [3] is “no effect”. The “Swelling of popliteal lymph nodes” value in series [4] is given as “no effect”. Further, the “Ear swelling produced by topical arachidonic acid” value in series [5] (oral administration) and in series [5] (topical administration) was “no effect” throughout.
